In ChEMBL document CHEMBL1150366, “Structural requirements of pyrido[2,3-d]pyrimidin-7-one as CDK4/D inhibitors: 2D autocorrelation, CoMFA and CoMSIA analyses” (Bioorg Med Chem, 2008) one finds log(10'6/IC50) data, which are given here for 54 compounds.

SMILES strings stand for the structures.

This test is described as follows: Binding affinity to CDK4/D.

With `CN1CCN(c2ccc(Nc3ncc4ccc(=O)n([C@H]5C[C@H]6CC[C@H]5C6)c4n3)cc2)CC1` (relative stereo), the log(10'6/IC50) is 5.22.

As for `CC(C)n1c(=O)ccc2cnc(Nc3ccc(N4CCN(C)CC4)cc3)nc21`, the log(10'6/IC50) turned out to be 4.49.

As to `CCN(CC)CCOc1ccc(Nc2ncc3ccc(=O)n(C4CCCC4)c3n2)cc1`, the log(10'6/IC50) is 6.15.

Consider `CCn1c(=O)ccc2cnc(Nc3cccc(OC)c3)nc21`, for which the log(10'6/IC50) is 1.4.

The compound `CC(C)n1c(=O)ccc2cnc(Nc3ccccc3)nc21` displayed a log(10'6/IC50) of 3.84.

As to `O=c1ccc2cnc(Nc3ccccc3)nc2n1C1CCCCC1`, the log(10'6/IC50) was 4.33.

Regarding `O=c1ccc2cnc(Nc3ccccc3)nc2n1C1CCCC1`, the log(10'6/IC50) is 3.68.

`CCn1c(=O)ccc2cnc(NC3CCCCC3)nc21` had a log(10'6/IC50) of 2.48.

Take `CCn1c(=O)ccc2cnc(N(C)c3ccccc3)nc21`: the log(10'6/IC50) is 1.4.

Turning to `COCCn1c(=O)ccc2cnc(Nc3ccccc3)nc21`, the log(10'6/IC50) is 2.54.

For the compound `CCn1c(=O)ccc2cnc(Nc3cccc(OC(F)(F)C(F)F)c3)nc21`, the log(10'6/IC50) was 2.11.

`CCN(CC)CCOc1ccc(Nc2ncc3ccc(=O)n(C4CCCCCC4)c3n2)cc1`: the log(10'6/IC50) came out at 5.4.

Compound `CCn1c(=O)ccc2cnc(NC(C)(C)C)nc21` gave a log(10'6/IC50) of 2.28.

In turn, `CCn1c(=O)ccc2cnc(NC(C)C)nc21` displayed a log(10'6/IC50) of 2.36.

For `CCN(CC)CCOc1ccc(Nc2ncc3ccc(=O)n([C@H]4C[C@H]5CC[C@H]4C5)c3n2)cc1` (relative stereo), the log(10'6/IC50) turned out to be 3.35.

With `O=c1ccc2cnc(Nc3ccccc3)nc2n1[C@H]1C[C@H]2CC[C@H]1C2` (relative stereo), the log(10'6/IC50) amounted to 4.42.

`CCNc1ncc2ccc(=O)n(CC)c2n1` came in with a log(10'6/IC50) of 1.92.

For the compound `CCn1c(=O)ccc2cnc(Nc3ccncc3)nc21`, the log(10'6/IC50) was 2.93.

Turning to `O=c1ccc2cnc(Nc3ccccc3)nc2n1-c1ccccc1`, the log(10'6/IC50) was 2.78.

As for `CCn1c(=O)ccc2cnc(Nc3ccc(OC)cc3)nc21`, the log(10'6/IC50) was 3.22.

In turn, `CN1CCN(c2ccc(Nc3ncc4ccc(=O)n(CCOCc5ccccc5)c4n3)cc2)CC1` had a log(10'6/IC50) of 2.68.

Consider `CN1CCN(c2ccc(Nc3ncc4ccc(=O)n(-c5ccccc5)c4n3)cc2)CC1`, for which the log(10'6/IC50) stood at 3.76.

The compound `CCn1c(=O)ccc2cnc(Nc3cccc(F)c3)nc21` had a log(10'6/IC50) of 2.85.

As for `CCn1c(=O)ccc2cnc(Nc3ccc(O)c(OC)c3)nc21`, the log(10'6/IC50) was 2.74.

`CN1CCN(c2ccc(Nc3ncc4ccc(=O)n(C5CC5)c4n3)cc2)CC1` displayed a log(10'6/IC50) of 3.85.

Take `CCn1c(=O)ccc2cnc(Nc3ccccc3)nc21`: the log(10'6/IC50) amounted to 3.21.

In the case of `CCn1c(=O)ccc2cnc(Nc3ccc(O)cc3)nc21`, the log(10'6/IC50) worked out at 3.23.

For `CCCn1c(=O)ccc2cnc(Nc3ccccc3)nc21`, the log(10'6/IC50) was 3.26.

In the case of `CCn1c(=O)ccc2cnc(Nc3ccc(-n4cccc4)cc3)nc21`, the log(10'6/IC50) stood at 2.56.

In turn, `CCn1c(=O)ccc2cnc(Nc3ccc(OC)c(OC)c3)nc21` displayed a log(10'6/IC50) of 2.39.

With `CCn1c(=O)ccc2cnc(Nc3ccc(OCCOC)cc3)nc21`, the log(10'6/IC50) is 2.63.

On to `Cn1c(=O)ccc2cnc(Nc3ccccc3)nc21`, for which the log(10'6/IC50) was determined as 2.26.

Compound `CCn1c(=O)ccc2cnc(Nc3ccc(N4CCOCC4)cc3)nc21` showed a log(10'6/IC50) of 3.52.

In turn, `CCn1c(=O)ccc2cnc(NCc3ccccc3)nc21` displayed a log(10'6/IC50) of 1.4.

For `CCOCCn1c(=O)ccc2cnc(Nc3ccccc3)nc21`, the log(10'6/IC50) was 2.11.

The compound `CCN(CC)CCOc1ccc(Nc2ncc3ccc(=O)n(CC)c3n2)cc1` came in with a log(10'6/IC50) of 3.8.

On to `CC(C)Cn1c(=O)ccc2cnc(Nc3ccccc3)nc21`, for which the log(10'6/IC50) is 3.53.

As to `O=c1ccc2cnc(Nc3ccccc3)nc2n1CC1CO1` (centres undefined), the log(10'6/IC50) was 2.3.

For `O=c1ccc2cnc(Nc3ccccc3)nc2n1C1CCCCCC1`, the log(10'6/IC50) was determined as 3.74.

`COCn1c(=O)ccc2cnc(Nc3ccccc3)nc21` yielded a log(10'6/IC50) of 2.38.

`O=c1ccc2cnc(Nc3ccccc3)nc2n1CC1CCCCC1` yielded a log(10'6/IC50) of 1.87.

In turn, `CC(C)CCn1c(=O)ccc2cnc(Nc3ccc(N4CCN(C)CC4)cc3)nc21` had a log(10'6/IC50) of 4.89.

`COC(=O)Cn1c(=O)ccc2cnc(Nc3ccccc3)nc21` had a log(10'6/IC50) of 1.51.

Compound `CN1CCN(c2ccc(Nc3ncc4ccc(=O)n(C5CCCCC5)c4n3)cc2)CC1` showed a log(10'6/IC50) of 5.4.

Regarding `CCn1c(=O)ccc2cnc(Nc3ccc(N4CCN(C)CC4)cc3)nc21`, the log(10'6/IC50) stood at 4.07.

In turn, `CCN(CC)CCOc1ccc(Nc2ncc3ccc(=O)n(C4CCCCC4)c3n2)cc1` gave a log(10'6/IC50) of 4.96.

Regarding `CCn1c(=O)ccc2cnc(Nc3ccc(F)cc3)nc21`, the log(10'6/IC50) worked out at 2.91.

For the compound `CCC(C)n1c(=O)ccc2cnc(Nc3ccccc3)nc21` (centres undefined), the log(10'6/IC50) was 3.72.

The compound `CC(C)CCn1c(=O)ccc2cnc(Nc3ccccc3)nc21` registered a log(10'6/IC50) of 3.8.

Regarding `CCCCn1c(=O)ccc2cnc(Nc3ccccc3)nc21`, the log(10'6/IC50) worked out at 2.83.

Compound `CCN(CC)CCOc1ccc(Nc2ncc3ccc(=O)n(C(C)C)c3n2)cc1` showed a log(10'6/IC50) of 4.35.

Regarding `CN1CCN(c2ccc(Nc3ncc4ccc(=O)n(CC(O)CO)c4n3)cc2)CC1` (centres undefined), the log(10'6/IC50) is 2.78.

For the compound `CN1CCN(c2ccc(Nc3ncc4ccc(=O)n(C5CCCC5)c4n3)cc2)CC1`, the log(10'6/IC50) was 5.05.

`O=c1ccc2cnc(Nc3ccccc3)nc2n1Cc1ccccc1`: the log(10'6/IC50) came out at 3.03.
